Consider ten compounds from ChEMBL document CHEMBL1146065, “Structure-based optimization of azole antifungal agents by CoMFA, CoMSIA, and molecular docking” (2006).

Values after ≈ are worked out from the molar mass of the structure shown.

Experiment [1] relates to Candida albicans. The experiment can be described thus: Antifungal activity against Candida albicans. The format is functional.
In experiment [2] the test system is Candida parapsilosis. Kind of experiment: Antifungal activity against Candida parapsilosis. It counts as functional. Conditions: Lodderomyces parapsilosis.
The test system of experiment [3] is Candida tropicalis. The experiment can be described thus: Antifungal activity against Candida tropicalis. It counts as functional.
In experiment [4] the test system is Cryptococcus neoformans. Kind of experiment: Antifungal activity against Cryptococcus neoformans. It counts as functional.
Experiment [5] concerns Aspergillus fumigatus. Kind of experiment: Antifungal activity against Aspergillus fumigatus. The format is functional.
For experiment [6], the system named is Fonsecaea pedrosoi. The experiment can be described thus: Antifungal activity against Fonsecaea pedrosoi. The format is functional.
In experiment [7] the test system is Trichophyton rubrum. Kind of experiment: Antifungal activity against Trichophyton rubrum. The format is functional.
Experiment [8] relates to Sporothrix schenckii. Kind of experiment: Antifungal activity against Sporothrix schenckii. The format is functional.
In experiment [9] the test system is Nannizzia gypsea. Kind of experiment: Antifungal activity against Microsporum gypseum. The format is functional.
Experiment [10] deals with Trichophyton violaceum. Kind of experiment: Antifungal activity against Trichophyton violaceum. The format is functional.
For experiment [11], the system named is Microsporum. Kind of experiment: Antifungal activity against Microsporum lanosum. The format is functional.
Experiment [12] has as its system Trichophyton benhamiae. Kind of experiment: Antifungal activity against Trichophyton mentagrophytes. It counts as functional, Arthroderma benhamiae.
For experiment [13], the system named is Epidermophyton floccosum. The experiment can be described thus: Antifungal activity against Epidermophyton floccosum. The format is functional.

For `CN(Cc1ccccc1F)CC(O)(Cn1cncn1)c1ccc(F)cc1F` (stereo not given), the MIC80 (as a rule, an inhibitory concentration at the 80% level, which refers to growth in some studies and to a panel of isolates in others) in experiment [1] was 0.5 µg/mL (≈ 1.33 µM); in experiment [2], not above 0.125 µg/mL; in experiment [3], 0.25 µg/mL (≈ 0.664 µM); in experiment [4] it was 0.5 µg/mL (≈ 1.33 µM); in [5] it was 8 µg/mL (≈ 21.3 µM); in [6], 1 µg/mL (≈ 2.66 µM). For the same compound, the MIC80 in [7] was 32 µg/mL (≈ 85 µM); in [8] it was 64 µg/mL (≈ 170 µM); in experiment [9], 8 µg/mL (≈ 21.3 µM); in [10], 2 µg/mL (≈ 5.31 µM); in experiment [11], 0.5 µg/mL (≈ 1.33 µM); in experiment [12] it was less than 0.0625 µg/mL. In experiment [13], this compound yielded an MIC80 of less than 0.0625 µg/mL.
As for `CN(Cc1ccc(Br)cc1F)CC(O)(Cn1cncn1)c1ccc(F)cc1F` (stereo not given), the MIC80 in [1] is 0.032 µg/mL (≈ 0.0703 µM); in experiment [2], not above 0.125 µg/mL; in experiment [3], not above 0.125 µg/mL; in experiment [4] it was not above 0.125 µg/mL; in experiment [5], 0.5 µg/mL (≈ 1.1 µM); in experiment [6], not above 0.125 µg/mL. For the same compound, the MIC80 in [7] was 0.25 µg/mL (≈ 0.549 µM); in [8] it was 64 µg/mL (≈ 141 µM); in [9], 32 µg/mL (≈ 70.3 µM); in experiment [10], 2 µg/mL (≈ 4.39 µM); in experiment [11], 1 µg/mL (≈ 2.2 µM); in experiment [12], less than 0.0625 µg/mL. The compound further registered an MIC80 in experiment [13] of less than 0.0625 µg/mL.
In the case of `CN(Cc1ccc(Cl)c(Cl)c1)CC(O)(Cn1cncn1)c1ccc(F)cc1F` (stereo not given), the MIC80 was 0.016 µg/mL (≈ 0.0374 µM) in [1]; 1 µg/mL (≈ 2.34 µM) in [2]; not above 0.125 µg/mL in [3]; not above 0.125 µg/mL in [4]; 4 µg/mL (≈ 9.36 µM) in [5]; not above 0.125 µg/mL in experiment [6]. Also, the MIC80 in [7] was not above 0.125 µg/mL; in [8], 32 µg/mL (≈ 74.9 µM); in experiment [9], 16 µg/mL (≈ 37.4 µM); in experiment [10], 4 µg/mL (≈ 9.36 µM); in experiment [11], 8 µg/mL (≈ 18.7 µM); in experiment [12] it was less than 0.0625 µg/mL. This compound came in with an MIC80 in [13] of less than 0.0625 µg/mL.
As for `Cc1ccc(C(=O)Nc2ccc(CN(C)CC(O)(Cn3cncn3)c3ccc(F)cc3F)cc2)cc1` (stereo not given), the MIC80 in experiment [1] turned out to be 0.016 µg/mL (≈ 0.0326 µM); in experiment [2], 0.031 µg/mL (≈ 0.0631 µM); in experiment [3], 0.016 µg/mL (≈ 0.0326 µM); in experiment [4], 0.5 µg/mL (≈ 1.02 µM); in [5], 32 µg/mL (≈ 65.1 µM); in experiment [6], 0.25 µg/mL (≈ 0.509 µM). Further, the MIC80 in [7] was not above 0.125 µg/mL; in [11], 2 µg/mL (≈ 4.07 µM).
With `CN(Cc1ccc(F)cc1Br)CC(O)(Cn1cncn1)c1ccc(F)cc1F` (stereo not given), the MIC80 in experiment [1] is 0.032 µg/mL (≈ 0.0703 µM); in experiment [2], 0.25 µg/mL (≈ 0.549 µM); in experiment [3], not above 0.125 µg/mL; in experiment [4] it was not above 0.125 µg/mL; in [5] it was 4 µg/mL (≈ 8.79 µM); in experiment [6], 0.25 µg/mL (≈ 0.549 µM). Moreover, the MIC80 in [7] was determined as 1 µg/mL (≈ 2.2 µM); in [8] it was 64 µg/mL (≈ 141 µM); in experiment [9], 32 µg/mL (≈ 70.3 µM); in experiment [10] it was 2 µg/mL (≈ 4.39 µM); in experiment [11], 4 µg/mL (≈ 8.79 µM); in experiment [12], 0.125 µg/mL (≈ 0.275 µM). This compound yielded an MIC80 in experiment [13] of less than 0.0625 µg/mL.
In the case of `CN(Cc1ccc(NC(=O)c2ccc([N+](=O)[O-])cc2)cc1)CC(O)(Cn1cncn1)c1ccc(F)cc1F` (stereo not given), the MIC80 in experiment [1] was 0.0625 µg/mL (≈ 0.12 µM); in [2], 0.125 µg/mL (≈ 0.239 µM); in experiment [3] it was 0.5 µg/mL (≈ 0.957 µM); in experiment [4] it was 0.5 µg/mL (≈ 0.957 µM); in experiment [5], more than 64 µg/mL; in [6] it was 0.25 µg/mL (≈ 0.478 µM). Besides, the results for the MIC80 in [7] and in experiment [11] were 0.5 µg/mL (≈ 0.957 µM) and 4 µg/mL (≈ 7.66 µM), respectively.
For `CN(Cc1ccc(NC(=O)c2cccc([N+](=O)[O-])c2)cc1)CC(O)(Cn1cncn1)c1ccc(F)cc1F` (stereo not given), the MIC80 in experiment [1] is 16 µg/mL (≈ 30.6 µM); in experiment [2] it was 16 µg/mL (≈ 30.6 µM); in [3], 4 µg/mL (≈ 7.66 µM); in experiment [4], 0.5 µg/mL (≈ 0.957 µM); in [5] it was 64 µg/mL (≈ 122 µM); in experiment [6] it was 0.5 µg/mL (≈ 0.957 µM). The MIC80 in experiment [7] came out at 0.25 µg/mL (≈ 0.478 µM); in experiment [11], 8 µg/mL (≈ 15.3 µM).
Consider `CN(Cc1ccc(NC(=O)c2ccccc2Cl)cc1)CC(O)(Cn1cncn1)c1ccc(F)cc1F` (stereo not given), for which the MIC80 is 0.0625 µg/mL (≈ 0.122 µM) in experiment [1]; 0.25 µg/mL (≈ 0.488 µM) in experiment [2]; 0.5 µg/mL (≈ 0.977 µM) in experiment [3]; 2 µg/mL (≈ 3.91 µM) in experiment [4]; 32 µg/mL (≈ 62.5 µM) in [5]; 2 µg/mL (≈ 3.91 µM) in experiment [6]. Further, the MIC80 in experiment [7] was found to be 4 µg/mL (≈ 7.81 µM); in [11], 2 µg/mL (≈ 3.91 µM).
For `CN(Cc1ccc(NC(=O)c2ccc(Cl)cc2)cc1)CC(O)(Cn1cncn1)c1ccc(F)cc1F` (stereo not given), the MIC80 in [1] is 0.016 µg/mL (≈ 0.0313 µM); in experiment [2], 0.031 µg/mL (≈ 0.0606 µM); in experiment [3], 0.016 µg/mL (≈ 0.0313 µM); in [4], 0.25 µg/mL (≈ 0.488 µM); in experiment [5] it was 32 µg/mL (≈ 62.5 µM); in [6], not above 0.125 µg/mL. For the same compound, the MIC80 is not above 0.125 µg/mL in experiment [7] and 8 µg/mL (≈ 15.6 µM) in [11].
Take `CN(Cc1ccccc1Cl)CC(O)(Cn1cncn1)c1ccc(F)cc1F` (stereo not given): the MIC80 was 0.032 µg/mL (≈ 0.0815 µM) in [1]; 0.25 µg/mL (≈ 0.636 µM) in experiment [2]; not above 0.125 µg/mL in experiment [3]; not above 0.125 µg/mL in experiment [4]; 8 µg/mL (≈ 20.4 µM) in experiment [5]; 0.25 µg/mL (≈ 0.636 µM) in experiment [6]. The MIC80 was not above 0.125 µg/mL in experiment [7]; 32 µg/mL (≈ 81.5 µM) in experiment [8]; 4 µg/mL (≈ 10.2 µM) in experiment [9]; 0.5 µg/mL (≈ 1.27 µM) in experiment [10]; 0.25 µg/mL (≈ 0.636 µM) in experiment [11]; less than 0.0625 µg/mL in experiment [12]. The compound also showed an MIC80 in experiment [13] of less than 0.0625 µg/mL.
